Test system: episomal HPV16 DNA in W12-20850 cells
Assay: W-12 cellular assay (episomal HPV-16 DNA, hybrid capture)
Type: cell-based, HPV16 (human papillomavirus)
Conditions: Human papillomavirus 16, 96 h, four days incubation, episomal HPV-16 DNA quantified by hybrid capture, inhibition relative to untreated control cells
Protocol: Compounds of the current invention are believed useful in the treatment and/or prophylaxis of conditions and diseases associated with HPV infection. Activity mediated through HPV was determined using the following W-12 cellular assay.
The W12 cell line used contains HPV16 DNA and was derived from a low-grade cervical dysplasia tissue by Margaret Stanley and subsequently clonally selected by Paul Lambert (University of Wisconsin). One of these clones, W12-20850, contains 1000 copies of episomal HPV16 DNA and was used in the cell-based assay. W12-20850 cells were routinely cultured with a gamma-irradiated (6000 rads) feeder layer of 3T3 cells. Assays, however, were run in the absence of a 3T3 feeder layer. W12-20850 and 3T3 cells were routinely split when they were sub-confluent. W12-20850 were grown in W12 Medium which is constituted of 25% DMEM (Gibco BRL, Cat # 12430-047), 75% F12 Media (Gibco BRL, Cat # 11765-021) and 2.5% FBS. The additives include […] Adenine (Sigma, Cat # A-9795), 0.4 mg/ml Hydrocortisone (Calbiochem, Cat # 386698), […] Bovine Insulin (Sigma, Cat # I-1882), 8.4 ng/ml cholera toxin (Fluka, Cat # 26694) and 10 ng/ml EGF (Invitrogen, Cat # 13247-051). 3T3 cells were grown in DMEM containing 10% FBS. Cell lines were incubated at 37° C., in the presence of 5% CO2.
For the assay, W12-20850 cells were seeded into a 96 well plate-containing compound. Plates were incubated at 37° C. in the presence of 5% CO2, for four days. On the fourth day, cells were lysed and the amount of episomal HPV-16 DNA was quantified using a non-radioactive hybrid capture technique with HPV-16 specific capture and detection probes. The percent inhibition relative to untreated control cells was then determined.
The hybrid capture assay is run in a 96 well plate format. Hybridization plates (Nunc Maxisorb Cat # 450320) were coated with a mixture of capture probe and ReactiBind solution for at least 4 hours and then washed with 0.2)(SSC, 0.05% Tween20 (SSCT) prior to blocking with 150 μl/well of 0.2 N NaOH, 1% Igepal, 10 mg/ml hsDNA for 6-8 hours. The hybridization was carried out by mixing 271 μl of lysed cells with 45 μl of denatured detection probe in 6M guanidine isothiocyanate. To prevent evaporation, 50 μl of mineral oil was added to each well. The plate was then heated to 90° C. for 6.5 minutes and the hybridization continued at 42° C. overnight. Assay plates were washed 6 times with SSC/T. Anti-digoxigenin HRP-conjugated Ab (Boehringer Mannheim 1207733, 1:5000) was incubated in the wells for 30 min at room temperature and washed with PBS/0.05% Tween-20. SuperSignal LBA substrate (Pierce Cat # 37070) was added, and chemiluminescence was measured using Wallac 1420 Victor plate reader.

SMILES | IC50 [nM]
Cc1ccc(S(=O)(=O)NC2CCCc3c2[nH]c2ccc(Br)cc32)cc1 (centres unmarked) [Example 37, N-(6-Bromo-2,3,4,9-tetrahydro-1H-carbazol-1-yl)-4-methylbenzenesulfonamide] | 24
Cc1ccc2[nH]c3c(c2c1)CCCC3NC(=O)Nc1ccccc1 (centres unmarked) [Example 43, N-(6-Methyl-2,3,4,9-tetrahydro-1H-carbazol-1-yl)-N′-phenylurea] | > 10000
O=S(=O)(NC1CCCc2c1[nH]c1ccc(Br)cc21)c1ccccc1F (centres unmarked) [Example 53, N-(6-bromo-2,3,4,9-tetrahydro-1H-carbazol-1-yl)-2-fluorobenzenesulfonamide] | 51
Cc1cccc(C(=O)NC2CCCc3c2[nH]c2ccc(Br)cc32)c1 (centres unmarked) [Example 28, N-(6-Bromo-2,3,4,9-tetrahydro-1H-carbazol-1-yl)-3-methylbenzamide] | 23
Cn1nccc1C(=O)NC1CCCc2c1[nH]c1ccc(Cl)cc21 (centres unmarked) [Example 48, N-(6-Chloro-2,3,4,9-tetrahydro-1H-carbazol-1-yl)-1-methyl-1H-pyrazole-5-carboxamide] | 2240
O=C(NC1CCCc2c1[nH]c1ccc(Cl)cc21)c1c[nH]cn1 (centres unmarked) [Example 50, N-(6-Chloro-2,3,4,9-tetrahydro-1H-carbazol-1-yl)-1H-imidazole-4-carboxamide] | 440
O=C(N[C@@H]1CCCc2c1[nH]c1ccc(Cl)cc21)c1ccccn1 [Example 45B, N-[(1R)-6-chloro-2,3,4,9-tetrahydro-1H-carbazol-1-yl]pyridine-2-carboxamide] | 5
O=C(NC1CCCc2c1[nH]c1ccc(Cl)cc21)c1cc[nH]n1 (centres unmarked) [Example 51, N-(6-Chloro-2,3,4,9-tetrahydro-1H-carbazol-1-yl)-1H-pyrazole-3-carboxamide] | 73
O=S(=O)(NC1CCCc2c1[nH]c1ccc(Br)cc21)c1c(F)cccc1F (centres unmarked) [Example 54, N-(6-bromo-2,3,4,9-tetrahydro-1H-carbazol-1-yl)-2,6-difluorobenzenesulfonamide] | 94
O=C(NC1CCCc2c1[nH]c1ccc(Br)cc21)c1ccc([N+](=O)[O-])cc1 (centres unmarked) [Example 22, N-(6-Bromo-2,3,4,9-tetrahydro-1H-carbazol-1-yl)-4-nitrobenzamide] | 45
O=C(NC1CCCc2c1[nH]c1ccc(Br)cc21)c1c(Cl)cccc1Cl (centres unmarked) [Example 19, N-(6-Bromo-2,3,4,9-tetrahydro-1H-carbazol-1-yl)-2,6-dichlorobenzamide] | 5800
COc1ccc(C(=O)NC2CCCc3c2[nH]c2ccc(Br)cc32)cc1 (centres unmarked) [Example 21, N-(6-Bromo-2,3,4,9-tetra hydro-1H-carbazol-1-yl)-4-methoxybenzamide] | 22
O=C(NC1CCCc2c1[nH]c1ccc(Br)cc21)c1ccc(C(F)(F)F)cc1 (centres unmarked) [Example 25, N-(6-Bromo-2,3,4,9-tetrahydro-1H-carbazol-1-yl)-4-(trifluoromethyl)benzamide] | 58
O=C(NC1CCCc2c1[nH]c1ccc(Cl)cc21)c1ccccn1 (centres unmarked) [Example 45A, N-(6-Chloro-2,3,4,9-tetrahydro-1H-carbazol-1-yl)-2-pyridinecarboxamide] | 10
O=C(Nc1ccccc1)NC1CCCc2c1[nH]c1ccc(Cl)cc21 (centres unmarked) [Example 44, N-(6-Chloro-2,3,4,9-tetrahydro-1H-carbazol-1-yl)-N′-phenylurea] | 1700
O=C(NC1CCCc2c1[nH]c1ccc(Cl)cc21)c1ccccc1F (centres unmarked) [Example 46A, N-(6-Chloro-2,3,4,9-tetrahydro-1H-carbazol-1-yl)-2-fluorobenzamide] | 12
O=C(NC1CCCc2c1[nH]c1ccc(Br)cc21)c1ccncc1 (centres unmarked) [Example 41, N-(6-Bromo-2,3,4,9-tetrahydro-1H-carbazol-1-yl)isonicotinamide] | 180
O=C(NC1CCCc2c1[nH]c1ccc(Br)cc21)c1cccc(F)c1 (centres unmarked) [Example 26, N-(6-Bromo-2,3,4,9-tetrahydro-1H-carbazol-1-yl)-3-fluorobenzamide] | 14
O=C(NC1CCCc2c1[nH]c1ccc(Br)cc21)c1ccc(Cl)nc1 (centres unmarked) [Example 40, N-(6-Bromo-2,3,4,9-tetrahydro-1H-carbazol-1-yl)-6-chloronicotinamide] | 24
O=C(N[C@H]1CCCc2c1[nH]c1ccc(Cl)cc21)c1ccccn1 [Example 45C, N-[(1S)-6-chloro-2,3,4,9-tetrahydro-1H-carbazol-1-yl]pyridine-2-carboxamide] | 6000
O=C(NC1CCCc2c1[nH]c1ccccc21)c1ccccc1 (centres unmarked) [Example 34, N-(2,3,4,9-Tetrahydro-1H-carbazol-1-yl)benzamide] | > 10000
CN(C)c1ccc(NC(=O)NC2CCCc3c2[nH]c2ccc(Br)cc32)cc1 (centres unmarked) [Example 13, N-(6-Bromo-2,3,4,9-tetrahydro-1H-carbazol-1-yl)-N′-[4-(dimethylamino)phenyl]urea] | 237
O=C(N[C@H]1CCCc2c1[nH]c1ccc(Cl)cc21)c1ccccc1F [Example 46C, N-[(1S)-6-chloro-2,3,4,9-tetrahydro-1H-carbazol-1-yl]-2-fluorobenzamide] | > 3000
COc1cccc(C(=O)NC2CCCc3c2[nH]c2ccc(Br)cc32)c1 (centres unmarked) [Example 27, N-(6-Bromo-2,3,4,9-tetrahydro-1H-carbazol-1-yl)-3-methoxybenzamide] | 28
COc1ccc(NC(=O)NC2CCCc3c2[nH]c2ccc(Br)cc32)c(C)c1 (centres unmarked) [Example 11, N-(6-Bromo-2,3,4,9-tetrahydro-1H-carbazol-1-yl)-N′-(4-methoxy-2-methylphenyl)urea] | > 1000

Other lines, results leading:

IC50 [nM] | SMILES
44 | O=C(NC1CCCc2c1[nH]c1ccc(Br)cc21)OCc1ccccc1 (centres unmarked) [Example 18, Benzyl 6-bromo-2,3,4,9-tetrahydro-1H-carbazol-1-ylcarbamate]
9 | O=C(NC1CCCc2c1[nH]c1ccc(Br)cc21)c1ccccc1F (centres unmarked) [Example 29, N-(6-Bromo-2,3,4,9-tetrahydro-1H-carbazol-1-yl)-2-fluorobenzamide]
20 | O=C(N[C@@H]1CCCc2c1[nH]c1ccc(Cl)cc21)c1ccccc1 [Example 36B, N-[(1R)-6-chloro-2,3,4,9-tetrahydro-1H-carbazol-1-yl]benzamide]
497 | Cc1ccccc1C(=O)NC1CCCc2c1[nH]c1ccc(Br)cc21 (centres unmarked) [Example 33, N-(6-Bromo-2,3,4,9-tetrahydro-1H-carbazol-1-yl)-2-methylbenzamide]
318 | O=C(/C=C/c1ccccc1)NC1CCCc2c1[nH]c1ccc(Br)cc21 (centres unmarked) [Example 17, N-(6-Bromo-2,3,4,9-tetrahydro-1H-carbazol-1-yl)-3-phenylprop-2-enamide]
184 | Cc1ccc2[nH]c3c(c2c1)CCCC3NC(=O)c1ccccc1 (centres unmarked) [Example 35, N-(6-Methyl-2,3,4,9-tetrahydro-1H-carbazol-1-yl)benzamide]
1400 | O=C(NC1CCCc2c1[nH]c1ccc(Br)cc21)c1ccccc1Cl (centres unmarked) [Example 32, N-(6-Bromo-2,3,4,9-tetrahydro-1H-carbazol-1-yl)-2-chlorobenzamide]
< 10 | O=C(NC1CCCc2c1[nH]c1ccc(Br)cc21)c1ccccn1 (centres unmarked) [Example 38, N-(6-Bromo-2,3,4,9-tetrahydro-1H-carbazol-1-yl)pyridine-2-carboxamide]
548 | O=C(Nc1ccccc1)NC1CCCc2c1[nH]c1ccc(Br)cc21 (centres unmarked) [Example 9, N-(6-Bromo-2,3,4,9-tetrahydro-1H-carbazol-1-yl)-N′-phenylurea]
32 | O=C(NC1CCCc2c1[nH]c1ccc(Br)cc21)c1ccccc1 (centres unmarked) [Example 14A, N-(6-Bromo-2,3,4,9-tetrahydro-1H-carbazol-1-yl)benzamide]
60 | O=C(NC1CCCc2c1[nH]c1ccc(Cl)cc21)c1ccccc1 (centres unmarked) [Example 36A, N-(6-Chloro-2,3,4,9-tetrahydro-1H-carbazol-1-yl)benzamide]
10 | O=C(N[C@@H]1CCCc2c1[nH]c1ccc(Br)cc21)c1ccccc1 [Example 14B, N-[(1R)-6-bromo-2,3,4,9-tetrahydro-1H-carbazol-1-yl]benzamide]
1200 | O=C(CCc1ccccc1)NC1CCCc2c1[nH]c1ccc(Br)cc21 (centres unmarked) [Example 16, N-(6-Bromo-2,3,4,9-tetrahydro-1H-carbazol-1-yl)-3-phenylpropanamide]
